From US20040219201A1, “Tempamine compositions and methods of use” (priority 2001, published 2004)
Like-named read-outs stand apart in the source and are kept apart here.

Tests used:
[1] = Samuni et al. 1997; cited from earlier work
[2] = system: MCF-7 (human breast adenocarcinoma); assay: Cytotoxicity assay (methylene blue); nitroxides alone or doxorubicin plus tempamine; type: cell-based; conditions: for IC50: Homo sapiens
Procedure: (§1) As described in Example 1, the cytotoxicity of tempamine was determined on three cell lines, MCF-7 (human breast adenocarcinoma), M-109S (doxorubicin-sensitive human breast carcinoma), and M-109R (doxorubicin-resistant human breast carcinoma). The effect of free tempamine on cell proliferation was determined by a methylene blue assay as described in Example 1B.
FIG. 4 is a plot comparing the percent survival of MCF-7 human breast carcinoma cells at various doses of tempamine (closed circles) and tempol (open circles) in vitro. The cells were analyzed after 72 hours of exposure to the nitroxides. Tempamine and tempol cell growth inhibitory activities were of similar magnitude.
(§2) In yet another aspect, the invention contemplates administration of tempamine in combination with chemotherapeutic agent. […] Doxorubicin was chosen as a model chemotherpeutic agent. The enhancement of doxorubicin cytotoxicity by tempamine was tested on three cell lines, as described in Example 1A. A cytotoxicity assay as described in Example 1B was used. Two of the cell lines, MCF-7 and M-109S, were doxorubicin-sensitive lines and one cell line, M-109R, was doxorubicin resistant. MCF-7 cells are more sensitive to tempamine (100 μM caused 75% growth inhibition), but are less sensitive to doxorubicin, than are M-109S cells.
(§3) MCF-7 (human breast adenocarcinoma), M-109S (doxorubicin-sensitive human breast carcinoma), and M-109R (doxorubicin-resistant human breast carcinoma) were maintained in RPMI medium (Biological Industries, Beit HaEmek, Israel) supplemented with 10% fetal calf serum (FCS). The cell lines were maintained under standard culture conditions at 37° C. in a humidified 5% CO2 atmosphere.
(§4) The effect of tempamine on cell proliferation was determined by the methylene blue assay (Horowitz, A. T., et al., Biochim BiophysActa. 1109:203, (1992)). Briefly, cells were seeded onto 96-well plates (MCF cells at a density of 6×10^3 cells per well, and M-109S and M-109R at a density of 1.5×10^3 cells per well) and allowed to grow for 24 hours prior to treatment with different concentrations of tempamine. After the addition of tempamine (5×10^−5 to 4×10^−4), the cells were incubated in RPMI +10% FCS for four days without change of medium. Then the cells were fixed with 2.5% glutaraldehyde, stained with methylene blue and assayed spectrophotometrically.

[3] = system: M-109S (doxorubicin-sensitive human breast carcinoma); assay: Cytotoxicity assay (methylene blue); tempamine alone or doxorubicin plus tempamine; type: cell-based; conditions: M-109S; for IC50: Homo sapiens
Procedure: as §1, §2, §3, §4

| SMILES | affinity to n-octanol versus aqueous phase [1] | IC50 ([2]; MCF7, read-out: IC50 of Doxorubicin (nM) in the presence of 200 μM tempamine, MCF-7) [nM] | IC50 ([2]; MCF7, MCF-7, read-out: IC50 of Doxorubicin (nM) in the presence of 0 μM tempamine) [nM] | IC50 ([2]; MCF7, MCF-7, read-out: IC50 of Doxorubicin (nM) in the presence of 50 μM tempamine) [nM] | IC50 ([2]; MCF7, MCF-7, read-out: IC50 of Doxorubicin (nM) in the presence of 100 μM tempamine) [nM] | change of IC50 value of doxorubicin ([2]; MCF-7, in the presence of 100 μM TMN) | IC50 ([3]; read-out: IC50 of Doxorubicin (nM) in the presence of 200 μM tempamine) [nM] | IC50 ([3]; read-out: IC50 of Doxorubicin (nM) in the presence of 0 μM tempamine) [nM] | IC50 ([3]; read-out: IC50 of Doxorubicin (nM) in the presence of 100 μM tempamine) [nM] | observed IC50 of doxorubicin decreased to ([3]; addition of 100-200 μM tempamine) [%] | IC50 ([2]; MCF7, 72 h, read-out: IC50 (cell growth inhibition)) [nM] |
| --- | --- | --- | --- | --- | --- | --- | --- | --- | --- | --- | --- |
| CC1(C)CCCC(C)(C)N1[O] [TEMPO] | much higher affinity to n-octanol than to the aqueous phase |  |  |  |  |  |  |  |  |  |  |
| COc1cccc2c1C(=O)c1c(O)c3c(c(O)c1C2=O)C[C@@](O)(C(=O)CO)C[C@@H]3O[C@H]1C[C@H](N)[C@H](O)[C@H](C)O1 [doxorubicin] |  | 55 ± 4.1 | 487 ± 32 | 475 ± 38 | 67 ± 5.8 | decreased by one order of magnitude | 18 ± 1.1 | 60 ± 4 | 27 ± 1.7 | 50 |  |
| CC1(C)CC(O)CC(C)(C)N1[O] [tempol] | much higher affinity to n-octanol than to the aqueous phase |  |  |  |  |  |  |  |  |  | 320000 |
